Measurements from patent US20240383955A1, “MODIFIED ANTIMICROBIAL PEPTIDES” (priority 2021, published 2024).
Values after ≈ are worked out from the molar mass of the structure shown. Square brackets hold non-standard residues; d marks the D form. Peptide text beside a SMILES is read from it. Dab = NCC[C@H](N)C(=O)O

Key:
C. krusei = assay: MIC by CLSI M27/M38 methodology; assay type: cell-based; details: C. krusei isolate ATCC 6258; Table 8
P. variotii = assay: MIC by CLSI M27/M38 methodology; assay type: cell-based; details: P. variotii isolate MYA-363; Table 8

SMILES: CC[C@H](C)[C@H](NC(=O)[C@H](CCCNC(=N)N)NC(=O)[C@@H](NC(=O)[C@H](CS)NC(=O)[C@H](Cc1ccccc1)NC(=O)[C@H](CS)NC(=O)[C@H](CCCNC(=N)N)NC(=O)[C@H](CCCNC(=N)N)NC(=O)[C@H](CCCNC(=N)N)NC(=O)[C@H](Cc1ccccc1)NC(=O)CNC(=O)[C@H](CCCNC(=N)N)NC(=O)[C@H](CS)NC(=O)[C@H](CCCNC(=N)N)NC(=O)CNC(=O)CN)[C@@H](C)O)C(=O)N[C@@H](CS)C(N)=O [GMA4C_V2A] (H-GGRCRGFRRRCFCTRIC-NH2; N-terminus assumed)
- MIC, 100% (C. krusei): 16 µg/mL (≈ 7.82 µM)
- MIC, 100% (P. variotii): 8 µg/mL (≈ 3.91 µM)

SMILES: N=C(N)NCCC[C@H](NC(=O)CNC(=O)[C@@H](N)Cc1ccccc1)C(=O)N[C@@H](CS)C(=O)N[C@@H](CCCNC(=N)N)C(=O)NCC(=O)N[C@@H](Cc1ccccc1)C(=O)N[C@@H](CCCNC(=N)N)C(=O)N[C@@H](CCCNC(=N)N)C(=O)N[C@@H](CCCNC(=N)N)C(=O)N[C@@H](CS)C(=O)N[C@@H](Cc1ccccc1)C(=O)N[C@@H](CS)C(=O)N[C@@H](Cc1c[nH]c2ccccc12)C(=O)N[C@@H](CCCNC(=N)N)C(=O)N[C@@H](Cc1c[nH]c2ccccc12)C(=O)N[C@@H](CS)C(N)=O [GMA4C_V4A] (H-FGRCRGFRRRCFCWRWC-NH2; N-terminus assumed)
- MIC, 100% (C. krusei): 8 µg/mL (≈ 3.49 µM)
- MIC, 100% (P. variotii): 8 µg/mL (≈ 3.49 µM)

SMILES: NCC[C@H](NC(=O)CNC(=O)[C@@H](N)Cc1ccccc1)C(=O)N[C@@H](CS)C(=O)N[C@@H](CCN)C(=O)NCC(=O)N[C@@H](Cc1ccccc1)C(=O)N[C@@H](CCN)C(=O)N[C@@H](CCN)C(=O)N[C@@H](CCN)C(=O)N[C@@H](CS)C(=O)N[C@@H](Cc1ccccc1)C(=O)N[C@@H](CS)C(=O)N[C@@H](Cc1c[nH]c2ccccc12)C(=O)N[C@@H](CCN)C(=O)N[C@@H](Cc1c[nH]c2ccccc12)C(=O)N[C@@H](CS)C(N)=O [GMA4C_V5A, FG(Dab)C(Dab)GF(Dab)(Dab)(Dab)CFCW(Dab)WC-NH2] (H-FG[Dab]C[Dab]GF[Dab][Dab][Dab]CFCW[Dab]WC-NH2; N-terminus assumed)
- MIC, 100% (C. krusei): 8 µg/mL (≈ 4.08 µM)
- MIC, 100% (P. variotii): 4 µg/mL (≈ 2.04 µM)
